This is an account of results in ChEMBL document CHEMBL5291721, “A preclinical secondary pharmacology resource illuminates target-adverse drug reaction associations of marketed drugs” (Nat Commun, 2023).

For assay [1], the target named is T1, Neuropeptide Y receptor type 1 (Homo sapiens, UniProt P25929).
T1 sequence (P25929 whole entry): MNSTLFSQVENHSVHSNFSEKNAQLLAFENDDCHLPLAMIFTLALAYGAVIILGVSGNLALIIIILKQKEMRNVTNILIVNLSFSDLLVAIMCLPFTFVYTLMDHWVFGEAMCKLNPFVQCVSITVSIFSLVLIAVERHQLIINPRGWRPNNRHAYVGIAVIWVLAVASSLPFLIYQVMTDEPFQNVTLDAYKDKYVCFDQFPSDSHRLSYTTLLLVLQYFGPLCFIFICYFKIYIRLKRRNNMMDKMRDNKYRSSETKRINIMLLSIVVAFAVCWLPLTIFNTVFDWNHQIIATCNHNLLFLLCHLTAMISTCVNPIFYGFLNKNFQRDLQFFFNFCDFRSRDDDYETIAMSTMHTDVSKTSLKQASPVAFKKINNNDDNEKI

The target of assay [2] is Kappa-type opioid receptor (Homo sapiens, UniProt P41145).
Chain of Kappa-type opioid receptor (P41145 whole entry): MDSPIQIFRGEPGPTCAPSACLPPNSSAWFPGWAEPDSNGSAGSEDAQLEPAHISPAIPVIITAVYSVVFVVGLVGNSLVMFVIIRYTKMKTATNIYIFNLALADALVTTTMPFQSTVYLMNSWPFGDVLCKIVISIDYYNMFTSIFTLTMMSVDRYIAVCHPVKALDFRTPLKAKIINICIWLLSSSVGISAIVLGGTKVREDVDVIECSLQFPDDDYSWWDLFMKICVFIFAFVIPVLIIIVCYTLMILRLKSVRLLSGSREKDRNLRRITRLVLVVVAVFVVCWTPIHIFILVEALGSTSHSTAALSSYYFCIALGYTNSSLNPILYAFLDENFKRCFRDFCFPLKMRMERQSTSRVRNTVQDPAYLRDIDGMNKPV
The target of assay [3] is T2, 5-hydroxytryptamine receptor 2C (Homo sapiens, UniProt P28335).
T2 sequence (P28335 whole entry): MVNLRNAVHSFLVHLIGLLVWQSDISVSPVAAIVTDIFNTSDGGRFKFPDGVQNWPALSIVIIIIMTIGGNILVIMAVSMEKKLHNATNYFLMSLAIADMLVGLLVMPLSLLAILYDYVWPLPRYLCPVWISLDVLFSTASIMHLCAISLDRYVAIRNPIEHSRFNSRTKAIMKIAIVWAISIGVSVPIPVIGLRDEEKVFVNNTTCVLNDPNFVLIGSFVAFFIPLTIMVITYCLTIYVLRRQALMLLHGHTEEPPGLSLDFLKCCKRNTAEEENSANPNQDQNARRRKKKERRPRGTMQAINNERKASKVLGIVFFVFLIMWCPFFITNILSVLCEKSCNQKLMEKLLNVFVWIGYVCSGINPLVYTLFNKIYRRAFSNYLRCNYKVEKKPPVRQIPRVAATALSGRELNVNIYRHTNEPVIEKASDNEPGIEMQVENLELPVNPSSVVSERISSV

For assay [4], the target named is 5-hydroxytryptamine receptor 2B (Homo sapiens, UniProt P41595). The class given is functional, cell-based.
Chain of 5-hydroxytryptamine receptor 2B (P41595 whole entry): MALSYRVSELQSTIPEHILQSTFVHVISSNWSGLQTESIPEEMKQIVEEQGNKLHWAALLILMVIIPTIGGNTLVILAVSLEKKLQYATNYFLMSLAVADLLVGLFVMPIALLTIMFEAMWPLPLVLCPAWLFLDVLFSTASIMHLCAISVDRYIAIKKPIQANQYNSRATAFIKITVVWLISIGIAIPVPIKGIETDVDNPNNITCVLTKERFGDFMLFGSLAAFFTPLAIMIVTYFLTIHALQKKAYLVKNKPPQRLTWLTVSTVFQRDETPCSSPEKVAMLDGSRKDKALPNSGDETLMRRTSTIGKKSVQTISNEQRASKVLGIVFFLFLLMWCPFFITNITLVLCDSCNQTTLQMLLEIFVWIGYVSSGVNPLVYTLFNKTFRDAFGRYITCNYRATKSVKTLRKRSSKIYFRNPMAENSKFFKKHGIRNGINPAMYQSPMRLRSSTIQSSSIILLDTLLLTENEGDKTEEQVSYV
In assay [5] the target is Delta-type opioid receptor (Homo sapiens, UniProt P41143).
Chain of Delta-type opioid receptor (P41143 whole entry): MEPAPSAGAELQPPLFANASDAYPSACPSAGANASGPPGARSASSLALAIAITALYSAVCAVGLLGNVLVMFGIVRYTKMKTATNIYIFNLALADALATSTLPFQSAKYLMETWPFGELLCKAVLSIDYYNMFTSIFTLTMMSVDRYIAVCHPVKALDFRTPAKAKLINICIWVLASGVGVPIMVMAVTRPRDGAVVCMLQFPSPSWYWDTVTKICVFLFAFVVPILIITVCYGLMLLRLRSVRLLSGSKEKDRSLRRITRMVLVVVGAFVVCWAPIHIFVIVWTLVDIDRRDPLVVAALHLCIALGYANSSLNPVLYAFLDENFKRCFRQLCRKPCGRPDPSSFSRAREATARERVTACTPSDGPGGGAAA
Assay [6] concerns the target Voltage-gated inwardly rectifying potassium channel KCNH2 (Homo sapiens, UniProt Q12809). The class given is functional. The note with it: read-out: AC50.
For assay [7], the target named is T3, Alpha-2C adrenergic receptor (Homo sapiens, UniProt P18825).
T3 sequence (P18825 whole entry): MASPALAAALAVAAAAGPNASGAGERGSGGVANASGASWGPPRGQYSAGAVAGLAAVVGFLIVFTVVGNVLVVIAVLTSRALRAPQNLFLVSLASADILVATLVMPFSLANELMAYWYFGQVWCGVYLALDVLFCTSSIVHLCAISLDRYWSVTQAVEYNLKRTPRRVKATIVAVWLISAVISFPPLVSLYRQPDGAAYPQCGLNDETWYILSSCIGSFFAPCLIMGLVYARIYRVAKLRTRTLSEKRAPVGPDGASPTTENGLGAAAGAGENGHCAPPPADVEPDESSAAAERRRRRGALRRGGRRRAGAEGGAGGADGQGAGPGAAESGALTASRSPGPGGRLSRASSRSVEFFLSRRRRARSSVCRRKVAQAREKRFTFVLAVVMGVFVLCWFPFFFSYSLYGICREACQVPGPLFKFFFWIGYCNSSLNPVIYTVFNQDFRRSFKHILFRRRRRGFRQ
The class given is functional.

In assay [8] the target is T4, Muscarinic acetylcholine receptor M2 (Homo sapiens, UniProt P08172).
T4 sequence (P08172 whole entry): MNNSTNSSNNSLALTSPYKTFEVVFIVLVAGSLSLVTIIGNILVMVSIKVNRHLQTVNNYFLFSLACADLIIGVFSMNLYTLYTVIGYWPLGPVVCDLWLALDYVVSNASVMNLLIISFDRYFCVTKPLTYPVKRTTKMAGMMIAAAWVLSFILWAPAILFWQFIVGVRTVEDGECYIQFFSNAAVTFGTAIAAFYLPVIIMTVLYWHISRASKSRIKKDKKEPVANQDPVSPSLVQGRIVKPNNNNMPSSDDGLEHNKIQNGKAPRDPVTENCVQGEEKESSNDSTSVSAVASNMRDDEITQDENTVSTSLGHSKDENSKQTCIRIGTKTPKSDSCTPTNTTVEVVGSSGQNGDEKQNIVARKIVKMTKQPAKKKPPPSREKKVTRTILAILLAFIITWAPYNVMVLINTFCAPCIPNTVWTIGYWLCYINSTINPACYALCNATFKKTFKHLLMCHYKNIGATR
The assay is classed as functional, cell-based.

Another assay has as its target Histamine H3 receptor (Homo sapiens, UniProt Q9Y5N1).
Assay [9] addresses Sodium-dependent dopamine transporter (Homo sapiens, UniProt Q01959).

Bounds are passed on as bounds.
Also: assay procedure not described here.

Chain of Histamine H3 receptor (Q9Y5N1 whole entry): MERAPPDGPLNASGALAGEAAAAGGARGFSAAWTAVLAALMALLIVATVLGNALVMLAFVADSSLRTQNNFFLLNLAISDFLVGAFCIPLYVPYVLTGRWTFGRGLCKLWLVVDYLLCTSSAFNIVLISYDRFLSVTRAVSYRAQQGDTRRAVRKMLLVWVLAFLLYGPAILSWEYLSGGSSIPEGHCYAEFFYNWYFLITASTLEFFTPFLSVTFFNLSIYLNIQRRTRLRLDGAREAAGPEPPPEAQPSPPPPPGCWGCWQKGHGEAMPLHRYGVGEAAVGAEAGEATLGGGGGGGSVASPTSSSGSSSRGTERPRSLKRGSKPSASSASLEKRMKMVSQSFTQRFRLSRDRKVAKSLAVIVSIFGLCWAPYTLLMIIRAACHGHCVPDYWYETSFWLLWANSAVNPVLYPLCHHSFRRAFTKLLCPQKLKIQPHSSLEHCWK
Chain of Sodium-dependent dopamine transporter (Q01959 whole entry): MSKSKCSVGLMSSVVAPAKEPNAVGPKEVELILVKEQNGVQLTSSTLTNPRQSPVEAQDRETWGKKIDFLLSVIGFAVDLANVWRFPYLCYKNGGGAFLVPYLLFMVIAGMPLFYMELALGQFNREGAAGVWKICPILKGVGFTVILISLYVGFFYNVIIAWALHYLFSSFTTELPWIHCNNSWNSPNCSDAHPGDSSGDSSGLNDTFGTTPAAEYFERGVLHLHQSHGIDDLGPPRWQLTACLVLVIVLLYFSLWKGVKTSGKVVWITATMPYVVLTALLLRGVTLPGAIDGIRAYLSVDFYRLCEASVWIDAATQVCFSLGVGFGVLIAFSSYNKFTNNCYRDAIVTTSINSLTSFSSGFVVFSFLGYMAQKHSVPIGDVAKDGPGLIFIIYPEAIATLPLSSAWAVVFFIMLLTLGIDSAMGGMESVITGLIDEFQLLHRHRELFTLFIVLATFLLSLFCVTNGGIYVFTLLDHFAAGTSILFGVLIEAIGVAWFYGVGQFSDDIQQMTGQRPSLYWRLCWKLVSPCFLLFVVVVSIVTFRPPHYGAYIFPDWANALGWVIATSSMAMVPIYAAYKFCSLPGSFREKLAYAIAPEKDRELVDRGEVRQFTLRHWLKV
Chain of Voltage-gated inwardly rectifying potassium channel KCNH2 (Q12809 whole entry): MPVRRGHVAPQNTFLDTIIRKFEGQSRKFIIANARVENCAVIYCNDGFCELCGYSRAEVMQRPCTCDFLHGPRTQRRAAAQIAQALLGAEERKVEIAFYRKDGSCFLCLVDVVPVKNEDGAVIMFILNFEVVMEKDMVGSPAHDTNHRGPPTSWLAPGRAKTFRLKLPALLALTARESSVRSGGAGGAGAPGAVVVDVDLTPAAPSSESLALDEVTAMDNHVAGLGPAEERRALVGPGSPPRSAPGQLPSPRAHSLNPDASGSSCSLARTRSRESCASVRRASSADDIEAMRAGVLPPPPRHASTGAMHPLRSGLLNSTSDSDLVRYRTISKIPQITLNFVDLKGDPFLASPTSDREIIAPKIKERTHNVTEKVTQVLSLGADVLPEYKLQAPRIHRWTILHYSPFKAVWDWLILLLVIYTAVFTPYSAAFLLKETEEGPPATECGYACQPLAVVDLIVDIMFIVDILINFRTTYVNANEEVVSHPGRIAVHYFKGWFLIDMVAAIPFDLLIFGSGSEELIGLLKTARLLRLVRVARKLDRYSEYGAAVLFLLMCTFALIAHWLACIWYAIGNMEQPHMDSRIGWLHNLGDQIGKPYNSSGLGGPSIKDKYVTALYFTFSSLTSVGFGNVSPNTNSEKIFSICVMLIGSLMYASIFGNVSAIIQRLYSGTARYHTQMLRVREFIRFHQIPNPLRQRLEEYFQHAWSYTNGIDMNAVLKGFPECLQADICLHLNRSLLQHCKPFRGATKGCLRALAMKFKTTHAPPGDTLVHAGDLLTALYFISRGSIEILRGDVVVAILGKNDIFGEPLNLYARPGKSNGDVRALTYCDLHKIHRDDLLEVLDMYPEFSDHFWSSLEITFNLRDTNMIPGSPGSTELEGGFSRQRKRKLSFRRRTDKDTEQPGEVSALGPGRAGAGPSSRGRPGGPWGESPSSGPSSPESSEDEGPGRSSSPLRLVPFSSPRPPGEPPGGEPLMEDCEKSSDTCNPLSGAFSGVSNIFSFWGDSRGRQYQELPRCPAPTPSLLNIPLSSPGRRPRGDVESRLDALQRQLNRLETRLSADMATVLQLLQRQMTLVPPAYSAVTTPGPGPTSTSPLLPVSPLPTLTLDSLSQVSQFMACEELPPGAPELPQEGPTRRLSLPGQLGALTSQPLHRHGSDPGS

As usually defined, the AC50 is the concentration giving half of the maximal activity seen. On to `CCCCN1CCCCC1C(=O)Nc1c(C)cccc1C` (stereo not drawn) [BUPIVACAINE], for which the AC50 in assay [1] was over 30 µM; in assay [2] it was over 30 µM; in assay [3], over 30 µM; in [4] it was over 30 µM; in assay [5] it was over 30 µM; in assay [6], 11 µM. Further, the AC50 (in assay [7]; in assay [8]; at Histamine H3 receptor; in [9]) was over 30 µM throughout.
As to `COc1c(C)c2c(c(O)c1C/C=C(\C)CCC(=O)OCCN1CCOCC1)C(=O)OC2` [MYCOPHENOLATE MOFETIL], the AC50 in [1] was over 30 µM; in assay [2], over 30 µM; in assay [3], over 30 µM; in assay [4], over 30 µM; in assay [5] it was over 30 µM; in [6], 13 µM. Further, the AC50 (in [7]; in assay [8]; at Histamine H3 receptor; in assay [9]) was over 30 µM in each case.
With `COc1ccccc1OCC(O)COC(N)=O` (stereo not drawn) [METHOCARBAMOL], the AC50 in [1] is over 10 µM; in assay [2], over 10 µM; in assay [3], over 30 µM; in [4], over 10 µM; in assay [5], over 30 µM; in assay [6], over 30 µM. The AC50 in assay [7], in [8] and in [9] was over 10 µM each time.
For `COc1c(N2CCNC(C)C2)c(F)cc2c(=O)c(C(=O)O)cn(C3CC3)c12` (stereo not drawn) [GATIFLOXACIN], the AC50 was over 10 µM in assay [1]; over 10 µM in [2]; over 30 µM in [3]; over 10 µM in assay [4]; over 30 µM in assay [5]; 24 µM in assay [6]. Further, the AC50 in assay [7], in [8] and in [9] was over 10 µM in each case.
`C#CCN(C)[C@H](C)Cc1ccccc1` [SELEGILINE]: the AC50 in [1] was over 10 µM; in assay [2], 7.8 µM; in assay [3], over 30 µM; in [4] it was over 10 µM; in [5], over 30 µM; in assay [6], over 30 µM. Further, the AC50 in assay [7] is 2.9 µM; in [8] it was over 10 µM; on Histamine H3 receptor it was over 10 µM; in assay [9], over 10 µM.
For the compound `C[C@]12CCC(=O)C=C1CC[C@@H]1[C@@H]2CC[C@@]2(C)[C@H]1CC[C@]2(C)O` [METHYLTESTOSTERONE], the AC50 in assay [1], in [2], in assay [3], in assay [4], in assay [5] and in assay [6] was over 30 µM throughout. Further, the AC50 (in [7]; in [8]; on Histamine H3 receptor; in assay [9]) was over 30 µM throughout.
On to `CN[C@@H]1[C@H](O)[C@H](NC)[C@H]2O[C@@]3(O)C(=O)C[C@@H](C)O[C@H]3O[C@@H]2[C@H]1O` [SPECTINOMYCIN], for which the AC50 in assay [1] is over 10 µM; in assay [2], over 10 µM; in [3], over 30 µM; in assay [4], over 30 µM; in assay [5] it was over 30 µM; in [6], over 30 µM. Also, the AC50 (in assay [7]; in assay [8]; at Histamine H3 receptor; in assay [9]) was over 10 µM in each case.
Take `COc1ccc2c(c1)c(CC(=O)OCC(=O)O)c(C)n2C(=O)c1ccc(Cl)cc1` [ACEMETACIN]: the AC50 in assay [1], in [2], in [3], in assay [4], in [5] and in assay [6] was over 30 µM each time. The AC50 (in [7]; in assay [8]; at Histamine H3 receptor; in assay [9]) was over 30 µM in each case.
With `CC(=O)O[C@@]12CO[C@@H]1C[C@H](O)[C@@]1(C)C(=O)[C@H](O)C3=C(C)[C@@H](OC(=O)[C@H](O)[C@@H](NC(=O)OC(C)(C)C)c4ccccc4)C[C@@](O)([C@@H](OC(=O)c4ccccc4)[C@H]21)C3(C)C` [DOCETAXEL ANHYDROUS], the concentration at half-maximal activity (AC50) in assay [1], in assay [2], in assay [3], in [4], in [5] and in assay [6] was over 30 µM in each case. Also, the AC50 (in [7]; in [8]; at Histamine H3 receptor; in assay [9]) was over 30 µM each time.
Turning to `Cc1c(O)c(=O)ccn1C` [DEFERIPRONE], the AC50 in assay [1], in assay [2], in assay [3], in assay [4], in [5] and in [6] was over 30 µM in each case. The concentration at half-maximal activity (AC50) (in assay [7]; in assay [8]; at Histamine H3 receptor; in assay [9]) was over 30 µM in each case.
Consider `CCCOc1ccc(C(=O)OCCN(CC)CC)cc1N` [PROPARACAINE], for which the AC50 in [1] was over 30 µM; in [2] it was over 30 µM; in assay [3], over 30 µM; in assay [4], over 30 µM; in assay [5], over 30 µM; in [6], 6.4 µM. Further, the AC50 in assay [7] was over 30 µM; in assay [8] it was over 30 µM; at Histamine H3 receptor, 1.3 µM; in [9] it was over 30 µM.
Turning to `CC[C@]1(O)C[C@@H]2CN(CCc3c([nH]c4ccccc34)[C@@](C(=O)OC)(c3cc4c(cc3OC)N(C)[C@H]3[C@@](O)(C(N)=O)[C@H](O)[C@]5(CC)C=CCN6CC[C@]43[C@@H]65)C2)C1` [VINDESINE], the AC50 in assay [1] is over 30 µM; in [2], over 30 µM; in assay [3] it was over 30 µM; in [4] it was over 30 µM; in assay [5] it was over 30 µM; in [6] it was 14.9 µM. The AC50 (in assay [7]; in assay [8]; on Histamine H3 receptor; in assay [9]) was over 30 µM throughout.
Consider `CC(C)(Oc1ccc(C2CC2(Cl)Cl)cc1)C(=O)O` (stereo not drawn) [CIPROFIBRATE], for which the concentration at half-maximal activity (AC50) in assay [1], in [2], in assay [3], in assay [4], in assay [5] and in assay [6] was over 30 µM in each case. In addition, the AC50 (in assay [7]; in assay [8]; at Histamine H3 receptor; in [9]) was over 30 µM in each case.
For `CCN(CC)CCOC(=O)c1ccc(N)cc1` [PROCAINE], the AC50 in [1] was over 30 µM; in assay [2], over 10 µM; in [3], over 30 µM; in assay [4], over 10 µM; in assay [5] it was over 30 µM; in assay [6], over 30 µM. Moreover, the AC50 is over 10 µM in assay [7], over 10 µM in assay [8], 8.7 µM on Histamine H3 receptor and over 30 µM in [9].
